# From PubChem BioAssay (NCI)
#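 Following 48 hours of exposure in 96-well plates, responses at five concentrations were used to interpolate endpoints linearly. TGI: total growth inhibition.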
# Key:
# Test in all cases: NCI-60 cell line screen, 48 h
# CAKI-1 renal = tested on: CAKI-1 renal
# COLO 205 colon = tested on: COLO 205 colon
# HOP-62 NSCLC = tested on: HOP-62 NSCLC
# RPMI-8226 leukemia = tested on: RPMI-8226 leukemia
# DLD-1 colon = tested on: DLD-1 colon
# NCI-H23 lung = tested on: NCI-H23 lung
# UO-31 renal = tested on: UO-31 renal
# NCI-H226 lung = tested on: NCI-H226 lung
# SR leukemia = tested on: SR leukemia
# MALME-3M melanoma = tested on: MALME-3M melanoma
# A549 NSCLC = tested on: A549 NSCLC
# HOP-92 NSCLC = tested on: HOP-92 NSCLC
# NCI-H460 lung = tested on: NCI-H460 lung
# OVCAR-4 ovarian = tested on: OVCAR-4 ovarian
# UACC-62 melanoma = tested on: UACC-62 melanoma
# CCRF-CEM leukemia = tested on: CCRF-CEM leukemia
# OVCAR-3 ovarian = tested on: OVCAR-3 ovarian
# KM20L2 colon = tested on: KM20L2 colon
# SNB-75 CNS = tested on: SNB-75 CNS
# KM12 colon = tested on: KM12 colon
# TK-10 renal = tested on: TK-10 renal
# OVCAR-8 ovarian = tested on: OVCAR-8 ovarian
# 786-0 renal = tested on: 786-0 renal
# DMS 273 small cell lung = tested on: DMS 273 small cell lung
# XF 498 CNS = tested on: XF 498 CNS
# HCT-15 colon = tested on: HCT-15 colon
# SF-268 CNS = tested on: SF-268 CNS
# IGROV1 ovarian = tested on: IGROV1 ovarian
# SNB-19 CNS = tested on: SNB-19 CNS
# HCC-2998 colon = tested on: HCC-2998 colon
# HL-60(TB) leukemia = tested on: HL-60(TB) leukemia
# HCT-116 colon = tested on: HCT-116 colon
# HT29 colon = tested on: HT29 colon
# UACC-257 melanoma = tested on: UACC-257 melanoma
# SK-MEL-5 melanoma = tested on: SK-MEL-5 melanoma
# M14 melanoma = tested on: M14 melanoma
# SF-295 CNS = tested on: SF-295 CNS
# MOLT-4 leukemia = tested on: MOLT-4 leukemia
# NCI-H522 lung = tested on: NCI-H522 lung
# SK-MEL-28 melanoma = tested on: SK-MEL-28 melanoma
# SW-620 colon = tested on: SW-620 colon
# DMS 114 small cell lung = tested on: DMS 114 small cell lung
# SK-MEL-2 melanoma = tested on: SK-MEL-2 melanoma
# K-562 leukemia = tested on: K-562 leukemia
# OVCAR-5 ovarian = tested on: OVCAR-5 ovarian
# LXFL 529 NSCLC = tested on: LXFL 529 NSCLC
# U251 CNS = tested on: U251 CNS
# SF-539 CNS = tested on: SF-539 CNS
# ACHN renal = tested on: ACHN renal
# MDA-N = tested on: MDA-N
# EKVX NSCLC = tested on: EKVX NSCLC
# HS 578T breast = tested on: HS 578T breast
# MDA-MB-435 = tested on: MDA-MB-435
# NCI/ADR-RES ovarian = tested on: NCI/ADR-RES ovarian
# RXF 393 renal = tested on: RXF 393 renal
# MDA-MB-231 breast = tested on: MDA-MB-231 breast
# BT-549 breast = tested on: BT-549 breast
# T-47D breast = tested on: T-47D breast
# DU-145 prostate = tested on: DU-145 prostate
# LOX IMVI melanoma = tested on: LOX IMVI melanoma
# SN12C renal = tested on: SN12C renal
# MCF7 breast = tested on: MCF7 breast
# PC-3 prostate = tested on: PC-3 prostate
# SK-OV-3 ovarian = tested on: SK-OV-3 ovarian
# A498 renal = tested on: A498 renal
# M19-MEL melanoma = tested on: M19-MEL melanoma
# SNB-78 CNS = tested on: SNB-78 CNS
smiles,measurement,setting,value
Cc1ccc(NCC2(/N=C/c3ccccc3)OC(CO)C(O)C2O)cc1 (configuration not stated),TGI,CAKI-1 renal,> 100 µM
same,TGI,COLO 205 colon,> 100 µM
same,TGI,HOP-62 NSCLC,> 100 µM
same,TGI,RPMI-8226 leukemia,> 100 µM
same,TGI,DLD-1 colon,> 100 µM
same,TGI,NCI-H23 lung,> 100 µM
same,TGI,UO-31 renal,> 100 µM
same,TGI,NCI-H226 lung,> 100 µM
same,TGI,SR leukemia,> 100 µM
same,TGI,MALME-3M melanoma,> 100 µM
same,TGI,A549 NSCLC,> 100 µM
same,TGI,HOP-92 NSCLC,> 100 µM
same,TGI,NCI-H460 lung,> 100 µM
same,TGI,OVCAR-4 ovarian,> 100 µM
same,TGI,UACC-62 melanoma,> 100 µM
same,TGI,CCRF-CEM leukemia,99.2 µM
same,TGI,OVCAR-3 ovarian,> 100 µM
same,TGI,KM20L2 colon,49.4 µM
same,TGI,SNB-75 CNS,> 100 µM
same,TGI,KM12 colon,> 100 µM
same,TGI,TK-10 renal,> 100 µM
same,TGI,OVCAR-8 ovarian,> 100 µM
same,TGI,786-0 renal,> 100 µM
same,TGI,DMS 273 small cell lung,> 100 µM
same,TGI,XF 498 CNS,> 100 µM
same,TGI,HCT-15 colon,> 100 µM
same,TGI,SF-268 CNS,> 100 µM
same,TGI,IGROV1 ovarian,> 100 µM
same,TGI,SNB-19 CNS,> 100 µM
same,TGI,HCC-2998 colon,> 100 µM
same,TGI,HL-60(TB) leukemia,64.7 µM
same,TGI,HCT-116 colon,> 100 µM
same,TGI,HT29 colon,> 100 µM
same,TGI,UACC-257 melanoma,> 100 µM
same,TGI,SK-MEL-5 melanoma,> 100 µM
same,TGI,M14 melanoma,> 100 µM
same,TGI,SF-295 CNS,> 100 µM
same,TGI,MOLT-4 leukemia,> 100 µM
same,TGI,NCI-H522 lung,> 100 µM
same,TGI,SK-MEL-28 melanoma,> 100 µM
same,TGI,SW-620 colon,> 100 µM
same,TGI,DMS 114 small cell lung,> 100 µM
same,TGI,SK-MEL-2 melanoma,> 100 µM
same,TGI,K-562 leukemia,> 100 µM
same,TGI,OVCAR-5 ovarian,> 100 µM
same,TGI,LXFL 529 NSCLC,> 100 µM
same,TGI,U251 CNS,83.7 µM
same,TGI,SF-539 CNS,> 100 µM
same,TGI,ACHN renal,> 100 µM
NS(=O)(=O)c1ccc(NC(=O)N/N=C/c2ccccc2[N+](=O)[O-])cc1,TGI,MDA-N,39 µM
same,TGI,CAKI-1 renal,> 100 µM
same,TGI,COLO 205 colon,> 100 µM
same,TGI,HOP-62 NSCLC,> 100 µM
same,TGI,RPMI-8226 leukemia,> 100 µM
same,TGI,EKVX NSCLC,> 100 µM
same,TGI,NCI-H23 lung,> 100 µM
same,TGI,UO-31 renal,> 100 µM
same,TGI,NCI-H226 lung,> 100 µM
same,TGI,HS 578T breast,> 100 µM
same,TGI,SR leukemia,> 100 µM
same,TGI,MALME-3M melanoma,> 100 µM
same,TGI,A549 NSCLC,> 100 µM
same,TGI,HOP-92 NSCLC,> 100 µM
same,TGI,NCI-H460 lung,> 100 µM
same,TGI,MDA-MB-435,42.7 µM
same,TGI,OVCAR-4 ovarian,> 100 µM
same,TGI,UACC-62 melanoma,> 100 µM
same,TGI,CCRF-CEM leukemia,> 100 µM
same,TGI,OVCAR-3 ovarian,> 100 µM
same,TGI,NCI/ADR-RES ovarian,> 100 µM
same,TGI,RXF 393 renal,> 100 µM
same,TGI,MDA-MB-231 breast,> 100 µM
same,TGI,BT-549 breast,> 100 µM
same,TGI,SNB-75 CNS,> 100 µM
same,TGI,KM12 colon,> 100 µM
same,TGI,TK-10 renal,> 100 µM
same,TGI,OVCAR-8 ovarian,> 100 µM
same,TGI,786-0 renal,> 100 µM
same,TGI,HCT-15 colon,> 100 µM
same,TGI,SF-268 CNS,> 100 µM
same,TGI,IGROV1 ovarian,> 100 µM
same,TGI,SNB-19 CNS,> 100 µM
same,TGI,HCC-2998 colon,> 100 µM
same,TGI,HL-60(TB) leukemia,> 100 µM
same,TGI,HCT-116 colon,> 100 µM
same,TGI,T-47D breast,> 100 µM
same,TGI,HT29 colon,> 100 µM
same,TGI,UACC-257 melanoma,> 100 µM
same,TGI,SK-MEL-5 melanoma,> 100 µM
same,TGI,M14 melanoma,85.3 µM
same,TGI,SF-295 CNS,> 100 µM
same,TGI,MOLT-4 leukemia,> 100 µM
same,TGI,NCI-H522 lung,> 100 µM
same,TGI,DU-145 prostate,> 100 µM
same,TGI,SK-MEL-28 melanoma,> 100 µM
same,TGI,SW-620 colon,> 100 µM
same,TGI,SK-MEL-2 melanoma,> 100 µM
same,TGI,LOX IMVI melanoma,> 100 µM
same,TGI,SN12C renal,> 100 µM
same,TGI,MCF7 breast,> 100 µM
same,TGI,PC-3 prostate,> 100 µM
same,TGI,K-562 leukemia,> 100 µM
same,TGI,OVCAR-5 ovarian,> 100 µM
same,TGI,SK-OV-3 ovarian,> 100 µM
same,TGI,A498 renal,> 100 µM
same,TGI,U251 CNS,> 100 µM
same,TGI,SF-539 CNS,> 100 µM
same,TGI,ACHN renal,> 100 µM
O=S1(=O)c2ccccc2N(O)C2=NCCN21,TGI,CAKI-1 renal,> 100 µM
same,TGI,COLO 205 colon,> 100 µM
same,TGI,HOP-62 NSCLC,> 100 µM
same,TGI,RPMI-8226 leukemia,> 100 µM
same,TGI,DLD-1 colon,> 100 µM
same,TGI,EKVX NSCLC,> 100 µM
same,TGI,NCI-H23 lung,> 100 µM
same,TGI,UO-31 renal,> 100 µM
same,TGI,NCI-H226 lung,> 100 µM
same,TGI,SR leukemia,> 100 µM
same,TGI,MALME-3M melanoma,> 100 µM
same,TGI,A549 NSCLC,> 100 µM
same,TGI,HOP-92 NSCLC,> 100 µM
same,TGI,NCI-H460 lung,> 100 µM
same,TGI,UACC-62 melanoma,> 100 µM
same,TGI,CCRF-CEM leukemia,> 100 µM
same,TGI,OVCAR-3 ovarian,> 100 µM
same,TGI,RXF 393 renal,> 100 µM
same,TGI,KM20L2 colon,> 100 µM
same,TGI,SNB-75 CNS,> 100 µM
same,TGI,KM12 colon,> 100 µM
same,TGI,TK-10 renal,> 100 µM
same,TGI,OVCAR-8 ovarian,> 100 µM
same,TGI,786-0 renal,> 100 µM
same,TGI,DMS 273 small cell lung,> 100 µM
same,TGI,SF-268 CNS,> 100 µM
same,TGI,IGROV1 ovarian,> 100 µM
same,TGI,SNB-19 CNS,> 100 µM
same,TGI,M19-MEL melanoma,> 100 µM
same,TGI,HCC-2998 colon,> 100 µM
same,TGI,HL-60(TB) leukemia,> 100 µM
same,TGI,HCT-116 colon,> 100 µM
same,TGI,HT29 colon,> 100 µM
same,TGI,UACC-257 melanoma,> 100 µM
same,TGI,SK-MEL-5 melanoma,> 100 µM
same,TGI,M14 melanoma,> 100 µM
same,TGI,SF-295 CNS,> 100 µM
same,TGI,MOLT-4 leukemia,> 100 µM
same,TGI,NCI-H522 lung,> 100 µM
same,TGI,SK-MEL-28 melanoma,> 100 µM
same,TGI,SW-620 colon,> 100 µM
same,TGI,DMS 114 small cell lung,> 100 µM
same,TGI,SK-MEL-2 melanoma,> 100 µM
same,TGI,LOX IMVI melanoma,> 100 µM
same,TGI,SN12C renal,> 100 µM
same,TGI,K-562 leukemia,> 100 µM
same,TGI,OVCAR-5 ovarian,> 100 µM
same,TGI,LXFL 529 NSCLC,> 100 µM
same,TGI,SK-OV-3 ovarian,> 100 µM
same,TGI,A498 renal,> 100 µM
same,TGI,U251 CNS,> 100 µM
same,TGI,SNB-78 CNS,> 100 µM
same,TGI,SF-539 CNS,> 100 µM
same,TGI,ACHN renal,> 100 µM
